Assay [1] relates to Lactobacillus johnsonii. Briefly: Inhibition of catalytic activity of His6-tagged Lactobacillus johnsonii N6.2 cinnamoyl esterase LJ0536 expressed in Escherichia coli BL21 (DE3) assessed as reduction in hydrolysis of 4-nitrophenyl butyrate in 4-nitrophenol pre-incubated for 2 hrs.
The test system of assay [2] is Lactobacillus johnsonii. The assay is described as follows: Inhibition of catalytic activity of His6-tagged Lactobacillus johnsonii N6.2 cinnamoyl esterase LJ0536 expressed in Escherichia coli BL21 (DE3) assessed as reduction in hydrolysis of 4-nitrophenyl butyrate in 4-nitrophenol at 400 uM in presence of 2.5 to 20 mM enzyme pre-incubated for 2 hrs.
Assay [3] relates to Lactobacillus johnsonii. The assay is described as follows: Non-competive inhibition of catalytic activity of His6-tagged Lactobacillus johnsonii N6.2 cinnamoyl esterase LJ0536 expressed in Escherichia coli BL21 (DE3) assessed as substrate Vmax by measuring hydrolysis of 4-nitrophenyl butyrate in 4-nitrophenol at 400 uM pre-incubated for 2 hrs (reference value: 4.094 umol/min/mg).

Molecules are shown by their SMILES. The source made the active and inactive calls. No cut-off for these calls is given here.

With `CC(C(=O)O)c1ccc(-c2ccccc2)c(F)c1` (stereo not drawn), in the assay with Lactobacillus johnsonii [1], the inhibition result is “Dose-dependent effect”. The inhibition result in the assay on Lactobacillus johnsonii [2] was “Active”. Further, in the assay on Lactobacillus johnsonii [3], the Vmax was determined as 3.7 µmol/min/mg.

For the origin of these results see ChEMBL document CHEMBL4414616, “Exhaustive Repertoire of Druggable Cavities at Protein-Protein Interfaces of Known Three-Dimensional Structure” (J Med Chem, 2019).
